Several values for one entry are separate records, joined by “and”; a condition that tells them apart may be missing. Equal entries are not always repeated. Toxic doses and inconclusive results are not listed.

The experiment has as its system BDF1 mice, P388 leukemia ip, median survival T/C. The experiment is described as follows: NCI In Vivo Anticancer Drug Screen. Data for tumor model P388 Leukemia (intraperitoneal) in B6D2F1 (BDF1) mice. Particulars: endpoint: median survival time, higher = longer survival. An outline of the steps: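 T/C = treated-group survival ÷ vehicle-control survival; tumour transplanted into mice before dosing.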

The mark [1] stands for this setting: dose: 6.25 mg/kg/injection, schedule: Q01DX009 (ip), vehicle: saline with Tween-80.
Where [2] appears, read: dose: 12.5 mg/kg/injection, schedule: Q01DX009 (ip), vehicle: saline with Tween-80.
The mark [3] stands for this setting: dose: 25.0 mg/kg/injection, schedule: Q01DX009 (ip), vehicle: saline with Tween-80.
Setting [4] is: dose: 50.0 mg/kg/injection, schedule: Q01DX009 (ip), vehicle: saline with Tween-80.
[5] abbreviates: dose: 100.0 mg/kg/injection, schedule: Q01DX009 (ip), vehicle: saline with Tween-80.
The mark [6] stands for this setting: dose: 200.0 mg/kg/injection, schedule: Q01DX009 (ip), vehicle: saline with Tween-80.
Setting [7] is: dose: 100.0 mg/kg/injection, schedule: Q04DX003 (ip), vehicle: saline with Tween-80.
The mark [8] stands for this setting: dose: 200.0 mg/kg/injection, schedule: Q04DX003 (ip), vehicle: saline with Tween-80.
Setting [9] is: dose: 400.0 mg/kg/injection, schedule: Q04DX003 (ip), vehicle: saline with Tween-80.
Where [10] appears, read: dose: 6.25 mg/kg/injection, schedule: Q01DX009 (ip), vehicle: saline.
[11] abbreviates: dose: 12.5 mg/kg/injection, schedule: Q01DX009 (ip), vehicle: saline.
The mark [12] stands for this setting: dose: 3.13 mg/kg/injection, schedule: Q01DX009 (ip), vehicle: saline.
[13] abbreviates: dose: 25.0 mg/kg/injection, schedule: Q01DX009 (ip), vehicle: saline.
Setting [14] is: dose: 400.0 mg/kg/injection, schedule: Q01DX009 (ip), vehicle: saline with Tween-80.

Regarding `COc1ccc([C@@H]2c3cc4c(cc3C[C@H]3COC(=O)[C@@H]32)OCO4)cc1OC`, the T/C under setting [1] is 104 % of control, the T/C under setting [2] was 116 % of control and the T/C under setting [3] was 121 % of control.
Turning to `CC(CC(=O)O)C(C(=O)O)C(=O)O` (stereo not given), the T/C reads like this: (dose: 6.25 mg/kg/injection, schedule: Q04DX003 (ip), vehicle: Klucel (hydroxypropylcellulose) (HPC)) 94 % of control; (dose: 6.25 mg/kg/injection, schedule: Q04DX003 (ip), vehicle: water) 107 % of control; (dose: 12.5 mg/kg/injection, schedule: Q01DX009 (ip), vehicle: water) 108 % of control; (dose: 12.5 mg/kg/injection, schedule: Q04DX003 (ip), vehicle: Klucel (hydroxypropylcellulose) (HPC)) 92 % of control; (dose: 12.5 mg/kg/injection, schedule: Q04DX003 (ip), vehicle: water) 95 % of control and 105 % of control; (dose: 25.0 mg/kg/injection, schedule: Q01DX009 (ip), vehicle: water) 107 % of control. Further, the T/C by setting is: (dose: 25.0 mg/kg/injection, schedule: Q04DX003 (ip), vehicle: Klucel (hydroxypropylcellulose) (HPC)) 92 % of control; (dose: 25.0 mg/kg/injection, schedule: Q04DX003 (ip), vehicle: water) 266 % of control and 94 % of control and 110 % of control; (dose: 50.0 mg/kg/injection, schedule: Q04DX003 (ip), vehicle: Klucel (hydroxypropylcellulose) (HPC)) 90 % of control; (dose: 50.0 mg/kg/injection, schedule: Q04DX003 (ip), vehicle: water) 266 % of control and 95 % of control and 117 % of control; (dose: 100.0 mg/kg/injection, schedule: Q01DX009 (ip), vehicle: water) 100 % of control; (dose: 100.0 mg/kg/injection, schedule: Q04DX003 (ip), vehicle: Klucel (hydroxypropylcellulose) (HPC)) 91 % of control. The T/C runs as follows: (dose: 100.0 mg/kg/injection, schedule: Q04DX003 (ip), vehicle: water) 86 % of control and 95 % of control and 100 % of control; (dose: 200.0 mg/kg/injection, schedule: Q01DX009 (ip), vehicle: water) 91 % of control; (dose: 200.0 mg/kg/injection, schedule: Q04DX003 (ip), vehicle: Klucel (hydroxypropylcellulose) (HPC)) 90 % of control; (dose: 200.0 mg/kg/injection, schedule: Q04DX003 (ip), vehicle: water) 101 % of control and 111 % of control; (dose: 400.0 mg/kg/injection, schedule: Q01DX009 (ip), vehicle: water) 91 % of control.
On to `CC1(C)C2CCC1(C)C1(C2)OC(CCl)CS1` (stereo not given), for which the T/C is 90 % of control under setting [4], 94 % of control under setting [5] and 108 % of control under setting [6].
For `CC(=O)c1c(C)[nH]c(C(=O)OC(C)(C)C)c1C`, the T/C runs as follows: (dose: 100.0 mg/kg/injection, schedule: Q01DX001 (ip), vehicle: Klucel (hydroxypropylcellulose) (HPC)) 113 % of control; (dose: 200.0 mg/kg/injection, schedule: Q01DX001 (ip), vehicle: Klucel (hydroxypropylcellulose) (HPC)) 100 % of control; (dose: 400.0 mg/kg/injection, schedule: Q01DX001 (ip), vehicle: Klucel (hydroxypropylcellulose) (HPC)) 109 % of control.
On to `COc1ccc(-c2c(C)c(C)nc(Cl)c2C#N)c(OCc2ccccc2)c1OC`, for which the T/C (dose: 0.1 mg/kg/injection, schedule: Q01DX009 (ip), vehicle: Klucel (hydroxypropylcellulose) (HPC)) was 95 % of control.
`NC(=O)NC1OC(COC(=O)c2ccccc2)C(OC(=O)c2ccccc2)C1OC(=O)c1ccccc1` (stereo not given): the T/C was 107 % of control (dose: 50.0 mg/kg/injection, schedule: Q04DX003 (ip), vehicle: saline with Tween-80); 90 % of control and 96 % of control under setting [7]; 93 % of control under setting [8]; 87 % of control and 90 % of control under setting [9].
`CC12CCC3C(CCC4CC5(CCC43C)CO5)C1CCC2=O` (stereo not given): the T/C was 103 % of control under setting [7], 103 % of control under setting [8] and 98 % of control under setting [9].
As to `[O-]c1c(Cl)c(Cl)c(O[P+](c2ccccc2)(c2ccccc2)c2ccccc2)c(Cl)c1Cl`, the T/C is 116 % of control under setting [10] and 122 % of control under setting [11].
For `O=C(NCCc1c[nH]c2ccccc12)c1cccnc1`, the T/C is, setting by setting: (dose: 100.0 mg/kg/injection, schedule: Q01DX001 (ip), vehicle: saline) 104 % of control; (dose: 200.0 mg/kg/injection, schedule: Q01DX001 (ip), vehicle: saline) 100 % of control; (dose: 400.0 mg/kg/injection, schedule: Q01DX001 (ip), vehicle: saline) 95 % of control.
Consider `CCCC1CCC(=C2C(=O)CCC2=O)O1` (stereo not given), for which the T/C is 119 % of control under setting [12]; 119 % of control under setting [10]; 119 % of control under setting [11]; 119 % of control under setting [13]; 113 % of control (dose: 25.0 mg/kg/injection, schedule: Q04DX002 (ip), vehicle: saline with Tween-80); 107 % of control (dose: 25.0 mg/kg/injection, schedule: Q04DX002 (ip), vehicle: saline). Moreover, the T/C runs as follows: (dose: 50.0 mg/kg/injection, schedule: Q04DX002 (ip), vehicle: saline with Tween-80) 103 % of control; (dose: 50.0 mg/kg/injection, schedule: Q04DX002 (ip), vehicle: saline) 100 % of control; (dose: 100.0 mg/kg/injection, schedule: Q04DX002 (ip), vehicle: saline with Tween-80) 120 % of control; (dose: 200.0 mg/kg/injection, schedule: Q04DX002 (ip), vehicle: saline) 105 % of control.
With `CN(c1ccccc1)S(=O)(=O)c1ccccc1`, the T/C under setting [7] is 95 % of control.
Consider `Clc1ccc(N=C(SSC(Cl)(Cl)Cl)SSC(Cl)(Cl)Cl)cc1`, for which the T/C runs as follows: under setting [2], 116 % of control; under setting [3], 103 % of control; under setting [4], 109 % of control.
As for `Oc1c(Cl)cc(Cl)cc1C=Nc1cc(C(F)(F)F)ccc1Cl`, the T/C was 87 % of control under setting [4], 89 % of control under setting [5] and 99 % of control under setting [6].
Take `NC(=O)CN1C(=O)c2ccccc2C1=O`: the T/C was 100 % of control under setting [5]; 95 % of control under setting [7]; 90 % of control under setting [6]; 100 % of control under setting [8]; 100 % of control under setting [14]; 100 % of control under setting [9].
On to `COC1(OC)C2CCC1C(Cl)=C2Cl`, for which the T/C under setting [12] was 102 % of control, the T/C under setting [10] is 100 % of control and the T/C under setting [13] was 109 % of control.
With `C=C1C(=O)O[C@@H]2/C=C(\CO)CC/C=C(\C)C[C@H](OC(=O)C(C)CO)[C@@H]12` (stereo not given in full), the T/C (dose: 2.75 mg/kg/injection, schedule: Q01DX009 (ip), vehicle: alcohol) was 118 % of control.
For `CCO/C=C1\SC(=S)N(c2ccccc2OC)C1=O`, the T/C (dose: 25.0 mg/kg/injection, schedule: Q01DX009 (ip), vehicle: Klucel (hydroxypropylcellulose) (HPC)) was 100 % of control; the T/C (dose: 50.0 mg/kg/injection, schedule: Q01DX009 (ip), vehicle: Klucel (hydroxypropylcellulose) (HPC)) is 112 % of control; the T/C (dose: 88.0 mg/kg/injection, schedule: Q01DX009 (ip), vehicle: Klucel (hydroxypropylcellulose) (HPC)) is 103 % of control; the T/C (dose: 88.0 mg/kg/injection, schedule: Q01DX009 (ip), vehicle: saline with Tween-80) is 122 % of control; the T/C (dose: 100.0 mg/kg/injection, schedule: Q01DX009 (ip), vehicle: Klucel (hydroxypropylcellulose) (HPC)) is 94 % of control; the T/C (dose: 132.0 mg/kg/injection, schedule: Q01DX009 (ip), vehicle: Klucel (hydroxypropylcellulose) (HPC)) is 103 % of control. Also, the T/C was 94 % of control and 123 % of control (dose: 200.0 mg/kg/injection, schedule: Q01DX009 (ip), vehicle: Klucel (hydroxypropylcellulose) (HPC)); 112 % of control (dose: 300.0 mg/kg/injection, schedule: Q01DX009 (ip), vehicle: Klucel (hydroxypropylcellulose) (HPC)).
As to `CNC(=O)c1ccc(NC(=O)Nc2cccc(C3=NCCN3)c2)cc1NC(=O)Nc1cccc(C2=NCCN2)c1`, the T/C (dose: 30.0 mg/kg/injection, schedule: Q01DX009 (ip), vehicle: saline with Tween-80) is 162 % of control.
Turning to `O=C1CCc2c(Br)cccc21`, the T/C under setting [7] is 110 % of control, the T/C under setting [8] was 115 % of control and the T/C under setting [9] was 110 % of control.
Take `N=Cc1c(O)n(-c2ccccc2)c(=O)[nH]c1=O`: the T/C was 112 % of control under setting [5], 100 % of control under setting [6] and 104 % of control under setting [14].
Turning to `NC1=CC(=O)c2ccccc2C1=O`, the T/C was 101 % of control under setting [1], 113 % of control under setting [2], 103 % of control under setting [3] and 103 % of control under setting [4].

The record behind these values is PubChem BioAssay AID328 (DTP/NCI, 2004).
